Data reported in paper PMC7765920 (Molecules, 2020).
Where two headings read alike, the source gives them in different places.

Columns and labels:
human recombinant MAO-A [1] = target: T1, human recombinant MAO-A (Homo sapiens, UniProt P21397); assay: MAO-GLO luminescence assay of MAO-A catalytic activity; format: biochemical; settings: read-out: MAO-A residual activity
T1 sequence (P21397 1-527): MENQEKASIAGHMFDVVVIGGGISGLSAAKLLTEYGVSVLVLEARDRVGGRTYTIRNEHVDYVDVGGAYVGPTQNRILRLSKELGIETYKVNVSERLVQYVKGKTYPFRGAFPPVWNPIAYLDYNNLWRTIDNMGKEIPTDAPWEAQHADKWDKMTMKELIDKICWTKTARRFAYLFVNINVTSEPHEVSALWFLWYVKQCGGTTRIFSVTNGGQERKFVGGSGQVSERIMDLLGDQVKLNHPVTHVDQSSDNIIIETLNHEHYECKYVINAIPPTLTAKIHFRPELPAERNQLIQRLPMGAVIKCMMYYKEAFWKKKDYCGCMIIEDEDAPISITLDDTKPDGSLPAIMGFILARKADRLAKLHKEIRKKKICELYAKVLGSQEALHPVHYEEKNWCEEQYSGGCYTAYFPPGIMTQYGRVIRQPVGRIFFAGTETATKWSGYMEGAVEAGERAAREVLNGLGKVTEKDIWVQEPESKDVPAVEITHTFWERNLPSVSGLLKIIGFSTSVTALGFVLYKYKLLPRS
Experimental: (§1) Optimization of the compounds, however, aimed predominantly at elimination of MAO-A-inhibitory activity while keeping DYRK1A inhibitory potency, and not at achieving high selectivity for DYRK1A over CLK1. The tests were performed as described by us before in detail. Due to the very large number of test compounds (more than 60), a first screening was performed at a single inhibitor concentration of 1 µM.
(§2) Inhibitors were dissolved in DMSO at a concentration of 10 mM and stored at […]. Working solutions were prepared to achieve a final concentration of 1 µM in the enzyme assays.
Catalytic activity of monoamine oxidase A (MAO-A) was measured by using the luminescence-based MAO-GLO^TM Assay from Promega. Recombinant MAO-A converts a luminogenic MAO substrate into luciferin, which is, in turn, luminometrically detected in a luciferase reaction. The amount of light produced is directly proportional to MAO activity. […] Inhibitory effects of the tested compounds were calculated relative to the activity of control reactions that were run in the absence of inhibitors.

[2] = target: T2, GST-DYRK1A-ΔC (amino acids 1–499 of rat DYRK1A) (Rattus norvegicus, UniProt Q63470); assay: Kinase-GLO luminescent assay of DYRK1A catalytic activity; format: biochemical; settings: read-out: DYRK1A residual activity
T2 construct: containing amino acids 1–499 of rat DYRK1A; made in house; host or cells: E. coli
Experimental: as §1, §2
(§3) Recombinant kinases were purified from E. coli as GST (glutathione S-transferase) fusion constructs by affinity adsorption to glutathione-Sepharose. […] Catalytic activity of the kinases was measured with the help of the Kinase-GLO^TM Luminescent Assay from Promega. Assays were performed in a total volume of 10 μL in kinase buffer (25 mM Hepes pH 7.4, 0.5 mM DTT, 5 mM MgCl2, 5 μM ATP) with appropriate peptide substrates (20 μM DYRKtide for the DYRKs and 100 μM DYRKtide for HIPK2, […]; or 100 μM RS peptide for CLK1, […]). Kinases amounts in the assays were adjusted so that approximately 90% of the ATP in the assay was consumed in control samples without inhibitor. Kinase reactions were incubated at room temperature for 30 min before 10 μL Kinase-GLO reagent was added for luminometric measurement of the ATP that was not consumed by the kinases. After incubation at room temperature for an additional 10 min, luminescence was recorded for 1 s (Berthold Orion Microplate Luminometer). ATP consumption in the control samples without inhibitor was set as 100% catalytic activity, and the inhibitory effects of the test compounds were calculated relative to this value.

human recombinant MAO-A [3] = target: T1, human recombinant MAO-A; parameters: method as in PMID 26192590; settings: 95% confidence intervals in parentheses; cited from earlier work
[4] = Solubility as observed in the enzyme assays; settings: could not be analyzed properly in the enzyme assays
[5] = target: T3, GST-CLK1cat (amino acids 141–484 of human CLK1) (Homo sapiens, UniProt P49759); assay: Kinase-GLO luminescent assay of CLK1 catalytic activity; format: biochemical; settings: read-out: CLK1 residual activity
T3 construct: containing amino acids 141–484 of human CLK1; made in house; host or cells: E. coli
Experimental: as §1, §2, §3

MAO-A = system: MAO-A; parameters: method as in PMID 21183355; settings: compared with harmine; cited from earlier work
[6] = system: GST-DYRK1A-ΔC (amino acids 1–499 of rat DYRK1A); assay: Kinase-GLO luminescent assay of DYRK1A catalytic activity; format: biochemical; settings: ratio of the MAO-A and DYRK1A IC50 values of Table 2
DYRK1A = settings: ATP competitive; cited from earlier work
DYRK1B = settings: ATP competitive; cited from earlier work
DYRK2 = settings: compared with DYRK1A/DYRK1B; cited from earlier work
DYRK3 = settings: compared with DYRK1A/DYRK1B; cited from earlier work
DYRK4 = settings: cited from earlier work
[7] = 1 µM inhibitor concentration, residual activity relative to control without inhibitor

T3 sequence (P49759 141-484): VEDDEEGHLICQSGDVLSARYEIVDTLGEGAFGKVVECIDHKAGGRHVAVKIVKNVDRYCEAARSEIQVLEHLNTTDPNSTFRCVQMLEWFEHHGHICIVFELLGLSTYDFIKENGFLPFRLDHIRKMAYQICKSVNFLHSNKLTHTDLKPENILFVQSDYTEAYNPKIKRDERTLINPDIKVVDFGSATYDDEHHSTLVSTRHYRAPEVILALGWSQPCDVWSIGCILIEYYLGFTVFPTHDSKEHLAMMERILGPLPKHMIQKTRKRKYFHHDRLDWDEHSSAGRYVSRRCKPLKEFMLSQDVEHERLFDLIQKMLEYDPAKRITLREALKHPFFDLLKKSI

SMILES: COc1ccc2c3ccnc(Cl)c3n(CC#N)c2c1 [AnnH75, 2-(1-Chloro-7-methoxy-9H-pyrido[3,4-b]indol-9-yl)acetonitrile]
- remaining activity at 1 µM (human recombinant MAO-A [1]; [7]): 119%
- remaining activity at 1 µM [2]: 10%
- IC50 (human recombinant MAO-A [3]): > 10000 nM

SMILES: O=c1[nH]ccc2c1[nH]c1c(Cl)c(Cl)ccc12 [AnnH65, 7,8-Dichloro-2,9-dihydro-1H-pydrido[3,4-b]indol-1-one]
- remaining activity at 1 µM [2, 7]: 100%
- Solubility [4]: very poor

SMILES: Cc1nccc2c1[nH]c1cc(OCCN(C)C)ccc12 [AnnH62]
- remaining activity at 1 µM (human recombinant MAO-A [1]; [7]): 22%
- remaining activity at 1 µM [2, 7]: 95%
- remaining activity at 1 µM [5, 7]: 100%
- Factor of reduction of MAO-A inhibition (MAO-A): 60

SMILES: COc1ccc2c3ccnc(C)c3n(CC#N)c2c1 [AnnH31, 2-(7-Methoxy-1-methyl-9H-pyrido[3,4-b]indol-9-yl)-acetonitrile]
- remaining activity at 1 µM (human recombinant MAO-A [1]; [7]): 75%
- remaining activity at 1 µM [2, 7]: 8%
- remaining activity at 1 µM [5, 7]: 11%
- Selectivity for DYRK1A over MAO-A [6]: 40

SMILES: COc1ccc2c(c1)[nH]c1c(C)nccc12 [harmine]
- remaining activity at 1 µM (human recombinant MAO-A [1]): 3%
- remaining activity at 1 µM [2]: 27%
- remaining activity at 1 µM [5]: 23%
- IC50 (DYRK1B): 33 to 170 nM
- DYRK2 inhibition (DYRK2): only inhibited at much higher concentrations
- DYRK3 inhibition (DYRK3): only inhibited at much higher concentrations
- DYRK4 inhibition (DYRK4): basically resistant
